pIC50: −log10 of the molar value.
What was measured:
AAK1 [1] = target: T1, AAK1 (Homo sapiens, UniProt Q2M2I8); experiment: HEK281 cell-based assay (phospho-mu2 Western blot in transfected HEK293F cells); details: 3 hours incubation, read-out: CBA IC50
T1 construct: HA; expressed in transfected cells; host or cells: HEK293F
Method in brief: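 HEK293F cells co-transfected with full-length human AAK1/HA and Flag/AP2M1 were treated next day with 5 compound concentrations (3-fold dilutions) in DMEM+0.5% FBS for 3 hours at 37° C. Lysates were Western blotted for phospho-mu2, with total mu2 detected by anti-Flag.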

AAK1 [2] = target: T1, AAK1; experiment: P81 filter plate assay; assay type: biochemical; details: full-length human AAK1, Mu2 substrate
Procedure: Compounds were serially diluted into a Labcyte LDV plate (Labcyte, cat#LP-0200) using a Mutiprobe (PerkinElmer) and Biomek FX (Beckman Coulter) so that the highest compound concentration was at 96 μM. Compounds were then pinged (75 nL per well) into a Greiner 384-well reaction plate (Greiner, #781076) using an ECHO 550 Liquid Handler (Labcyte). A total of 12 μl reaction buffer (IMAP buffer containing Tween and DTT, from Molecular Devices) was then added to each well of columns 1 and 13 for the negative controls and 12 μl of 2×AAK1 (0.2 nM full-length human protein, NCBI accession no. NP_055726.2) was added to the remaining wells. Enzyme was then pre-incubated with compound for 10 minutes at RT. Reactions were initiated upon Minitrak (PerkinElmer) addition of 12 μl substrate mix containing 2×Mu2 (0.2 μM, full length human protein), 2× cold ATP (2 μM), and 1.3 μCi of hot ^33P-ATP. Reactions proceeded for one hour at RT. Meanwhile, Millipore 384-well P81 filter plates (Millipore, catalog #MZPHNOW10) were placed on a plate washer (Zoom ZW, from Titertek) and pre-wet with 50 μl 1% phosphoric acid. Kinase reactions were then stopped upon addition of 24 μl of 2% phosphoric acid to each well and the Minitrak was then used to transfer 40 μl from each well into the pre-wet Millipore 384-well P81 filter plates. Reaction mixtures were incubated for 10 minutes at RT in the P81 plates, followed by washing five times with 100 μl/well of 1% phosphoric acid using the Zoom filter washer. The bottom of each filter plate was sealed followed by addition of 20 μl Microscint 40 to each well, sealing the top of the plates with Flashplate cover, and then waiting one hour until reading on the TopCount (PerkinElmer).

T1 sequence (Q2M2I8 1-863 isoform Q2M2I8-2): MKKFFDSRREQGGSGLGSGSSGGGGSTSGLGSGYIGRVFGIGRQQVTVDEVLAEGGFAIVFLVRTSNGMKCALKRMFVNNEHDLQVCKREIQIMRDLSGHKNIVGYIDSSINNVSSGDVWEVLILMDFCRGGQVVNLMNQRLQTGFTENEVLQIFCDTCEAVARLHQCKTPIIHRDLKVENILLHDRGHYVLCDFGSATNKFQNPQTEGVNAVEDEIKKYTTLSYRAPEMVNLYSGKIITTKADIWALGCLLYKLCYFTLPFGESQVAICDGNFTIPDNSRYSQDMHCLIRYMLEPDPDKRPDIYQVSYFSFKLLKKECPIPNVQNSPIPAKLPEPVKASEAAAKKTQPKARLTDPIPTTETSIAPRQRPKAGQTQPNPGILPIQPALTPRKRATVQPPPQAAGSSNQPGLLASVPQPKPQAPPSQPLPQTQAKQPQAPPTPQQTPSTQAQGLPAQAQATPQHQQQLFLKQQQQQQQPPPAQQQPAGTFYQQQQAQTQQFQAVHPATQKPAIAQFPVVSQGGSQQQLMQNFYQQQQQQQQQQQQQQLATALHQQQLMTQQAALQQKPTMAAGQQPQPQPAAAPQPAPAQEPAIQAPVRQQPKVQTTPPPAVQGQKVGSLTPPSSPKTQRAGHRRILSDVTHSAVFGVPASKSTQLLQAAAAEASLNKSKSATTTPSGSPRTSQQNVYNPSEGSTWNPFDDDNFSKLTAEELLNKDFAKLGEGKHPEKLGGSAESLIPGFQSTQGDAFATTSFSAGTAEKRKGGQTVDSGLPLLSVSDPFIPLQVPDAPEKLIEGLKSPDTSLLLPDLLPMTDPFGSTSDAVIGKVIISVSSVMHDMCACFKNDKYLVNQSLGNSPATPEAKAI

SMILES | pIC50 (AAK1 [1]) | pIC50 (AAK1 [2])
c1cc2c(cc1-c1cnc3ccc(NCCOC4CCCC4)nn13)OCO2 [3-(benzo[d][1,3]dioxol-5-yl)-N-(2-(cyclopentyloxy)ethyl)imidazo[1,2-b]pyridazin-6-amine] | ≥ 6.00 | ≥ 7.00
O=C(N1CCCC1)N1CCN(c2ccc3ncc(-c4ccccc4)n3n2)CC1 [(4-(3-phenylimidazo[1,2-b]pyridazin-6-yl)piperazin-1-yl)(pyrrolidin-1-yl)methanone] | ≥ 6.00 | ≥ 8.00
Cc1nc(C)c(-c2cnc3ccc(NC[C@@H]4CCCN4C(=O)CC(C)C)nn23)s1 [(S)-1-(2-(((3-(2,4-dimethylthiazol-5-yl)imidazo[1,2-b]pyridazin-6-yl)amino)methyl)pyrrolidin-1-yl)-3-methylbutan-1-one] | ≥ 8.00 | ≥ 8.00
CC(C)CC(=O)N1CCC[C@H]1CNc1ccc2ncc(-c3cccc(Cl)c3)n2n1 [(S)-1-(2-(((3-(3-chlorophenyl)imidazo[1,2-b]pyridazin-6-yl)amino)methyl)pyrrolidin-1-yl)-3-methylbutan-1-one] | ≥ 8.00 | ≥ 8.00
CC(C)CC(=O)N1CCC[C@H]1CNc1ccc2ncc(-c3cccc(F)c3)n2n1 [(S)-1-(2-(((3-(3-fluorophenyl)imidazo[1,2-b]pyridazin-6-yl)amino)methyl)pyrrolidin-1-yl)-3-methylbutan-1-one] | ≥ 8.00 | ≥ 8.00
CC(C)OC(=O)N(C)[C@H]1CCN(c2ccc3ncc(-c4cccnc4OC(F)F)n3n2)C1 [(S)-isopropyl (1-(3-(2-(difluoromethoxy)pyridin-3-yl)imidazo[1,2-b]pyridazin-6-yl)pyrrolidin-3-yl)(methyl)carbamate] | – | ≥ 8.00
CC(C)OC(=O)N(C)[C@H]1CCN(c2ccc3ncc(-c4ccncc4)n3n2)C1 [(S)-isopropyl methyl(1-(3-(pyridin-4-yl)imidazo[1,2-b]pyridazin-6-yl)pyrrolidin-3-yl)carbamate] | – | ≥ 7.00
CCCOC(=O)N1CCC[C@H]1CNc1ccc2ncc(Br)n2n1 [(S)-propyl 2-(((3-bromoimidazo[1,2-b]pyridazin-6-yl)amino)methyl)pyrrolidine-1-carboxylate] | – | ≥ 8.00
CN(C(=O)OC(C)(C)C)[C@H]1CCN(c2ccc3ncc(-c4cccnc4)n3n2)C1 [(S)-tert-butyl methyl(1-(3-(pyridin-3-yl)imidazo[1,2-b]pyridazin-6-yl)pyrrolidin-3-yl)carbamate] | – | ≥ 8.00
CN(C(=O)C1CCCC1)[C@H]1CCN(c2ccc3ncc(-c4cccnc4O)n3n2)C1 [Cyclopentanecarboxylic acid {(S)-1-[3-(2-hydroxy-pyridin-3-yl)-imidazo[1,2-b]pyridazin-6-yl]-pyrrolidin-3-yl}-methyl-amide] | – | ≥ 7.00
COC(=O)c1cnn(-c2ccc3ncc(Br)n3n2)c1 [Methyl 1-(3-bromoimidazo[1,2-b]pyridazin-6-yl)-1H-pyrazole-4-carboxylate] | – | ≥ 7.00
COc1cccc(-c2cnc3ccc(NCCOC4CCCC4)nn23)c1 [N-(2-(cyclopentyloxy)ethyl)-3-(3-methoxyphenyl)imidazo[1,2-b]pyridazin-6-amine] | – | ≥ 7.00
Cc1csc(-c2cnc3ccc(NCCOC4CCCC4)nn23)c1 [N-(2-(cyclopentyloxy)ethyl)-3-(4-methylthiophen-2-yl)imidazo[1,2-b]pyridazin-6-amine] | – | ≥ 7.00
Cc1ccc(-c2cnc3ccc(NCCOC4CCCC4)nn23)s1 [N-(2-(cyclopentyloxy)ethyl)-3-(5-methylthiophen-2-yl)imidazo[1,2-b]pyridazin-6-amine] | – | ≥ 7.00
c1csc(-c2cnc3ccc(NCCOC4CCCC4)nn23)c1 [N-(2-(cyclopentyloxy)ethyl)-3-(thiophen-2-yl)imidazo[1,2-b]pyridazin-6-amine] | – | ≥ 8.00
c1cc(-c2cnc3ccc(NCCOC4CCCC4)nn23)cs1 [N-(2-(cyclopentyloxy)ethyl)-3-(thiophen-3-yl)imidazo[1,2-b]pyridazin-6-amine] | – | ≥ 7.00
CC(C)NC(=O)N1CCN(c2ccc3ncc(-c4ccccc4)n3n2)CC1 [N-Isopropyl-4-(3-phenylimidazo[1,2-b]pyridazin-6-yl)piperazine-1-carboxamide] | – | ≥ 8.00
COc1cnccc1-c1cnc2ccc(NC3CCCCC3)nn12 [N-cyclohexyl-3-(3-methoxypyridin-4-yl)imidazo[1,2-b]pyridazin-6-amine] | – | ≥ 8.00
CC(C)OC(=O)N(C)[C@H]1CCN(c2ccc3ncc(Br)n3n2)C1 [[(S)-1-(3-Bromo-imidazo[1,2-b]pyridazin-6-yl)-pyrrolidin-3-yl]-methyl-carbamic acid isopropyl ester] | – | ≥ 8.00
CCOC(=O)N1CCN(c2ccc3ncc(C(=O)NC)n3n2)CC1 [ethyl 4-(3-(methylcarbamoyl)imidazo[1,2-b]pyridazin-6-yl)piperazine-1-carboxylate] | – | ≥ 7.00
CC(=O)c1cnc2ccc(N3CCN(C(=O)OC(C)C)CC3)nn12 [isopropyl 4-(3-acetylimidazo[1,2-b]pyridazin-6-yl)piperazine-1-carboxylate] | – | ≥ 7.00
COC(=O)c1cnn(-c2ccc3ncc(-c4cccnc4OC)n3n2)c1 [methyl 1-(3-(2-methoxypyridin-3-yl)imidazo[1,2-b]pyridazin-6-yl)-1H-pyrazole-4-carboxylate] | – | ≥ 8.00
COc1ncccc1-c1cnc2ccc(N3CC(N(C)C(=O)OC(C)(C)C)C3)nn12 [tert-butyl (1-(3-(2-methoxypyridin-3-yl)imidazo[1,2-b]pyridazin-6-yl)azetidin-3-yl)(methyl)carbamate] | – | ≥ 6.00

The remaining lines, values ahead:

pIC50 (AAK1 [1]) | pIC50 (AAK1 [2]) | SMILES
≥ 7.00 | ≥ 8.00 | COCCOC(=O)N1CCN(c2ccc3ncc(-c4cccnc4OC)n3n2)CC1 [2-methoxyethyl 4-(3-(2-methoxypyridin-3-yl)imidazo[1,2-b]pyridazin-6-yl)piperazine-1-carboxylate]
≥ 7.00 | ≥ 8.00 | CC(C)(C)CC(=O)N1CCN(c2ccc3ncc(-c4ccccc4)n3n2)CC1 [3,3-dimethyl-1-(4-(3-phenylimidazo[1,2-b]pyridazin-6-yl)piperazin-1-yl)butan-1-one]
≥ 7.00 | ≥ 8.00 | NCc1ccc(-c2cnc3ccc(NCC4CCCN4CC(F)(F)F)nn23)cc1 (stereo not shown) [3-(4-(aminomethyl)phenyl)-N-((1-(2,2,2-trifluoroethyl)pyrrolidin-2-yl)methyl)imidazo[1,2-b]pyridazin-6-amine]
≥ 6.00 | ≥ 8.00 | Oc1cccc(-c2cnc3ccc(NCCOC4CCCC4)nn23)c1 [3-(6-((2-(cyclopentyloxy)ethyl)amino)imidazo[1,2-b]pyridazin-3-yl)phenol]
≥ 7.00 | ≥ 8.00 | CC(C)(C)OC(=O)N1CCN(c2ccc3ncc(I)n3n2)CC1 [4-(3-Iodo-imidazo[1,2-b]pyridazin-6-yl)-piperazine-1-carboxylic acid tert-butyl ester]
≥ 7.00 | ≥ 8.00 | N#Cc1ccc(-c2cnc3ccc(NCCOC4CCCC4)nn23)s1 [5-(6-((2-(cyclopentyloxy)ethyl)amino)imidazo[1,2-b]pyridazin-3-yl)thiophene-2-carbonitrile]
≥ 7.00 | ≥ 8.00 | COc1ccccc1-c1cnc2ccc(N3CCN(C(=O)N4CCCCC4)CC3)nn12 [(4-(3-(2-methoxyphenyl)imidazo[1,2-b]pyridazin-6-yl)piperazin-1-yl)(piperidin-1-yl)methanone]
≥ 7.00 | ≥ 8.00 | COc1ccccc1-c1cnc2ccc(N3CCN(C(=O)N4CCCC4)CC3)nn12 [(4-(3-(2-methoxyphenyl)imidazo[1,2-b]pyridazin-6-yl)piperazin-1-yl)(pyrrolidin-1-yl)methanone]
≥ 7.00 | ≥ 8.00 | COc1ncccc1-c1cnc2ccc(N3CCN(C(=O)N4CCCCC4)CC3)nn12 [(4-(3-(2-methoxypyridin-3-yl)imidazo[1,2-b]pyridazin-6-yl)piperazin-1-yl)(piperidin-1-yl)methanone]
≥ 7.00 | ≥ 8.00 | COc1ncccc1-c1cnc2ccc(N3CCN(C(=O)N4CCCC4)CC3)nn12 [(4-(3-(2-methoxypyridin-3-yl)imidazo[1,2-b]pyridazin-6-yl)piperazin-1-yl)(pyrrolidin-1-yl)methanone]
≥ 7.00 | ≥ 8.00 | COc1cnccc1-c1cnc2ccc(N3CCN(C(=O)N4CCCC4)CC3)nn12 [(4-(3-(3-methoxypyridin-4-yl)imidazo[1,2-b]pyridazin-6-yl)piperazin-1-yl)(pyrrolidin-1-yl)methanone]
≥ 7.00 | ≥ 8.00 | O=C(N1CCCCC1)N1CCN(c2ccc3ncc(-c4ccccc4)n3n2)CC1 [(4-(3-phenylimidazo[1,2-b]pyridazin-6-yl)piperazin-1-yl)(piperidin-1-yl)methanone]

Reference: patent US8969565B2, “Imidazo[1,2-b]pyridazine-based compounds, compositions comprising them, and methods of their use” (Lexicon Pharmaceuticals, Inc., priority 2012, dated 2015)
